Test results reported in ChEMBL document CHEMBL6121069, “A Medicinal Chemistry Perspective on Protein Tyrosine Phosphatase Nonreceptor Type 2 in Tumor Immunology” (J Med Chem, 2025).
Blank lines part the entries; values can stand above or below the compound they belong to.

Tests used:
[1] = biological target: T1, Tyrosine-protein phosphatase non-receptor type 2 (Homo sapiens, UniProt P17706)
T1 sequence (P17706 whole entry): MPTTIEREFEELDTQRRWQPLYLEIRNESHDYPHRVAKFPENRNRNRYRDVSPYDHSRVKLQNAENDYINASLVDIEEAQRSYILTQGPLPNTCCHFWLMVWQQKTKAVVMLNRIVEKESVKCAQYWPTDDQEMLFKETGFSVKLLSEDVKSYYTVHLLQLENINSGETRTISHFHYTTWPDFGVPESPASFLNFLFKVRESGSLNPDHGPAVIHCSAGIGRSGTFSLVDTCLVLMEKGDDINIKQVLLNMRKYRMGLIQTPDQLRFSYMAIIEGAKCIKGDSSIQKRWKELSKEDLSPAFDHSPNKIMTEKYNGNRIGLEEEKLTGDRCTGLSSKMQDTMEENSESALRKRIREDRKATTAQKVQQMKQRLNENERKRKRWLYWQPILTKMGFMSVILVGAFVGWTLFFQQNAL
Description: Binding affinity to PTPN2 (unknown origin) assessed as inhibition constant

[2] = biological target: T2, Tyrosine-protein phosphatase non-receptor type 1 (Homo sapiens, UniProt P18031)
T2 sequence (P18031 whole entry): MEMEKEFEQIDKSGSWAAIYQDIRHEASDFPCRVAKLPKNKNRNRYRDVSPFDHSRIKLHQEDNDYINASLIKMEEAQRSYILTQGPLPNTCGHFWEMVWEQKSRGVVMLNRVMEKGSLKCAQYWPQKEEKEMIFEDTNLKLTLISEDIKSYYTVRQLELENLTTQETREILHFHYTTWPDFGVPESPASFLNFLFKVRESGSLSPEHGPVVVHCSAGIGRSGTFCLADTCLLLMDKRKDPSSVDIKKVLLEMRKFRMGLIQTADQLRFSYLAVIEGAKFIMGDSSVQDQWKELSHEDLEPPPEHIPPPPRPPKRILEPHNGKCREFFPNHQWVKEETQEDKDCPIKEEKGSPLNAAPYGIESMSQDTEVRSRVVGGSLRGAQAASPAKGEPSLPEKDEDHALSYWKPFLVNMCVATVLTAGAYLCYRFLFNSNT
Description: Binding affinity to PTP1B (unknown origin) assessed as inhibition constant

[3] = biological target: T1, Tyrosine-protein phosphatase non-receptor type 2; remark: listed apart in the source
Description: Inhibition of wild type FLAG-tagged PTPN2 (unknown origin) extracted from Escherichia coli BL21 (DE3) by micro-plate reader assay

[4] = biological target: T2, Tyrosine-protein phosphatase non-receptor type 1; remark: listed apart in the source
Description: Inhibition of PTP1B (unknown origin)

[5] = biological target: Protein cereblon/Tyrosine-protein phosphatase non-receptor type 2 (Homo sapiens, UniProt P17706+Q96SW2); settings: hek293t
Sequence of Protein cereblon/Tyrosine-protein phosphatase non-receptor type 2 (Q96SW2 whole entry, one chain of several): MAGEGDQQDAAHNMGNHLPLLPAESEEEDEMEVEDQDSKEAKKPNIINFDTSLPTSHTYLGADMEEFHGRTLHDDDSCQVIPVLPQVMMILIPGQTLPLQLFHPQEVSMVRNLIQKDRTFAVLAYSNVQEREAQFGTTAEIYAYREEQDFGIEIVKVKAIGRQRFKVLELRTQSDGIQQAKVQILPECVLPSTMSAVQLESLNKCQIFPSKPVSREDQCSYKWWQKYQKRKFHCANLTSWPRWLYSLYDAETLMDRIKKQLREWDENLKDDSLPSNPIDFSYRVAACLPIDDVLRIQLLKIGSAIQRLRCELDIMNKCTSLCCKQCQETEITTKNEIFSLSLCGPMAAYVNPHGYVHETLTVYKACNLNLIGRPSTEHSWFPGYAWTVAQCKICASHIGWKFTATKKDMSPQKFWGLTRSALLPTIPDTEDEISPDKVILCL
Description: PROTAC activity at PTPN2/CRBN in HEK293T cells assessed as protein degradation measured for 48 hrs by Western blot analysis

[6] = biological target: Protein cereblon/Tyrosine-protein phosphatase non-receptor type 1 (Homo sapiens, UniProt P18031+Q96SW2); settings: hek293t
Sequence of Protein cereblon/Tyrosine-protein phosphatase non-receptor type 1 (Q96SW2 whole entry, one chain of several): as above
Description: PROTAC activity at PTP1B/CRBN in HEK293T cells assessed as maximal protein degradation at 10 uM measured for 48 hrs by Western blot analysis relative to control

[7] = test system: B16-F10; test: cells; settings: Mus musculus
Description: Antiproliferative activity against mouse B16-F10 cells

[8] = biological target: T1, Tyrosine-protein phosphatase non-receptor type 2; remark: listed apart in the source
Description: Inhibition of full length human recombinant PTPN2 by mobility shift assay

[9] = biological target: T1, Tyrosine-protein phosphatase non-receptor type 2; remark: listed apart in the source
Description: Inhibition of His-tagged PTPN2 (unknown origin) by mobility shift assay

[10] = test system: B16-F10; test: cells; settings: Mus musculus; remark: listed apart in the source
Description: Antiproliferative activity against mouse B16-F10 cells assessed as reduction in cell growth

[11] = biological target: T1, Tyrosine-protein phosphatase non-receptor type 2; remark: listed apart in the source
Description: Inhibition of PTPN2 (unknown origin)

[12] = biological target: T1, Tyrosine-protein phosphatase non-receptor type 2; remark: listed apart in the source
Description: Inhibition of full length human recombinant PTPN2 using DiFMUP as substrate

[13] = test system: B16-F10; test: cells; settings: Mus musculus; remark: listed apart in the source
Description: Antiproliferative activity against mouse B16-F10 cells assessed as inhibition of cell growth

[14] = biological target: T1, Tyrosine-protein phosphatase non-receptor type 2; remark: listed apart in the source
Description: Inhibition of PTPN2 (unknown origin) using DiFMUP as substrate incubated for 30 mins by fluorescence based analysis

Ki [1]: 0.032 µM
Ki [2]: 0.016 µM
SMILES: O=C(O)COc1c(C(=O)O)sc(-c2cccc(N(C(=O)c3ccccc3)C3CCCCC3)c2)c1Br

IC50 [3]: 3.79 µM
SMILES: O=C1/C(=N\Nc2ccc(S(=O)(=O)O)cc2)C(c2ccc([N+](=O)[O-])cc2)=NN1c1ccccc1

IC50 [4]: 0.04 µM
SMILES: O=P(O)(O)C(F)(F)c1ccc(CC(Cc2ccc(-c3ccccc3)cc2)(c2ccccc2)n2nnc3ccccc32)cc1 (centres undefined)

IC50 [4]: 78 µM
SMILES: Cc1c(O[C@@H]2O[C@H](CO[C@@H]3OC[C@@H](O)[C@H](O)[C@H]3O)[C@@H](O)[C@H](O)[C@H]2O)cc2c(c1O)C(=O)c1ccc(O)c(O)c1C2=O

DC50 [5]: 0.094 µM
DC50 [6]: 0.142 µM
SMILES: Cc1ncsc1-c1ccc([C@H](C)NC(=O)[C@@H]2C[C@@H](O)CN2C(=O)[C@@H](NC(=O)CCCCCCNC(=O)Cn2cc(-c3ccc4cc(O)c(N5CC(=O)NS5(=O)=O)c(F)c4c3)cn2)C(C)(C)C)cc1

DC50 [5]: 0.571 µM
DC50 [6]: 2 µM
SMILES: Cc1ncsc1-c1ccc([C@H](C)NC(=O)[C@@H]2C[C@@H](O)CN2C(=O)[C@@H](NC(=O)CCCCCCCCCCNC(=O)Cn2cc(-c3ccc4cc(O)c(N5CC(=O)NS5(=O)=O)c(F)c4c3)cn2)C(C)(C)C)cc1

DC50 [5]: 0.217 µM
DC50 [6]: 13.1 µM
SMILES: Cc1ncsc1-c1ccc([C@H](C)NC(=O)[C@@H]2C[C@@H](O)CN2C(=O)[C@@H](NC(=O)CCCCCNC(=O)Cn2cc(-c3ccc4cc(O)c(N5CC(=O)NS5(=O)=O)c(F)c4c3)cn2)C(C)(C)C)cc1

DC50 [5]: 0.077 µM
DC50 [6]: 0.758 µM
SMILES: Cc1ncsc1-c1ccc([C@H](C)NC(=O)[C@@H]2C[C@@H](O)CN2C(=O)[C@@H](NC(=O)CCCCCCCNC(=O)Cn2cc(-c3ccc4cc(O)c(N5CC(=O)NS5(=O)=O)c(F)c4c3)cn2)C(C)(C)C)cc1

SMILES: CC1CCN=C(Nc2cc(O)c(N3CC(=O)NS3(=O)=O)c(F)c2)N1 (centres undefined)
Ki [1]: 0.005 µM
IC50 [7]: 5 µM

IC50 [8]: 0.0026 µM
SMILES: O=C1CN(c2c(O)cc3c(c2F)C[C@H](NCCCC(F)F)CS3)S(=O)(=O)N1

SMILES: CC(C)(O)CCOc1ccc2cc(O)c(N3CC(=O)NS3(=O)=O)c(F)c2c1
IC50 [9]: 0.0006 µM
IC50 [10]: 5.8 µM

IC50 [4]: 0.00839 µM
IC50 [11]: 0.0114 µM
SMILES: O=C1CN(c2c(O)cc3ccccc3c2F)S(=O)(=O)N1

SMILES: Cc1cnnc(NCc2cc(O)c(N3CC(=O)NS3(=O)=O)c(F)c2)c1
IC50 [12]: 0.004 µM
IC50 [7]: 0.41 µM

SMILES: O=C1CN(c2c(O)cc(CC3CCCCNC3)cc2F)S(=O)(=O)N1 (centres undefined)
IC50 [13]: > 100 µM

DC50 [5]: 0.01 µM
SMILES: Cn1c(=O)n(C2CCC(=O)NC2=O)c2cccc(C3CCN(C(=O)c4ccc5c(F)c(N6CC(=O)NS6(=O)=O)c(O)cc5c4)CC3)c21 (centres undefined)

IC50 [4]: 113 µM
IC50 [3]: 198 µM
SMILES: [2H]ON1C(=O)c2cccc3c([N+](=O)[O-])ccc(c23)C1=O

DC50 [5]: < 0.05 µM
SMILES: Cc1nn(CC(=O)Nc2ccc3c(F)c(N4CC(=O)NS4(=O)=O)c(O)cc3c2)c(C)c1-c1ccc2c(c1)n(C)c(=O)n2C1CCC(=O)NC1=O (centres undefined)

SMILES: Cc1ccnc(Nc2cc(O)c(N3CC(=O)NS3(=O)=O)c(F)c2)n1
Ki [1]: ≥ 0.1 µM
IC50 [7]: ≥ 100 µM

SMILES: CC(C)CCN1CCC(Cc2cc(O)c(N3CC(=O)NS3(=O)=O)c(F)c2)C1 (centres undefined)
IC50 [13]: 8.43 µM

IC50 [4]: 472 µM
IC50 [3]: 369 µM
SMILES: O=c1c2ccccc2nnn1O

IC50 [4]: 0.08 µM
SMILES: COc1ccc(-c2ccc[nH]2)cc1N1CC(=O)NS1(=O)=O

IC50 [14]: 1.5 µM
SMILES: O=P(O)(O)C(F)(F)c1cc2sc(CO)cc2cc1Br

IC50 [8]: 0.0159 µM
SMILES: CC(C)CCN[C@@H]1COc2cc(O)c(N3CC(=O)NS3(=O)=O)c(F)c2C1

IC50 [8]: 0.00885 µM
SMILES: O=C1CN(c2c(O)cc3c(c2F)C[C@H](NCCCC(F)F)CO3)S(=O)(=O)N1

DC50 [5]: > 1 µM
SMILES: O=C(CCOCCn1cc(C2(Nc3cccc4c3C(=O)N(C3CCC(=O)NC3=O)C4=O)CC2)nn1)NCCOc1ccc2cc(O)c(N3CC(=O)NS3(=O)=O)c(F)c2c1 (centres undefined)

SMILES: O=C1CN(c2c(O)cc(CC3CCCNC3)cc2F)S(=O)(=O)N1 (centres undefined)
IC50 [13]: 25.8 µM

DC50 [5]: > 1 µM
SMILES: Cn1c(=O)n(C2CCC(=O)NC2=O)c2cccc(C3CCN(CCOCCC(=O)NCCOc4ccc5cc(O)c(N6CC(=O)NS6(=O)=O)c(F)c5c4)CC3)c21 (centres undefined)
